# In ChEMBL document CHEMBL1201862, “PubChem BioAssay data set” (2004):
# Activity calls are given as the source filed them.
# What was measured:
# [1] = Luminescence Cell-Based Dose Response to Identify Activators of 5'UTR Stem-Loop Driven Prion Protein mRNA Translation in H4-C Neuroglioblastoma Cells. [Related pubchem assays: 1829 (Project Summary), 1814 (Primary HTS)]; type: functional
# [2] = Luminescence Cell-Based Dose Response HTS to Identify Activators of Luciferase Translation or Activity in H4 […] Cells. [Related pubchem assays: 1829 (Project Summary), 1814 (Primary HTS)]; type: functional
# [3] = Luminescence Cell-Based Dose Response to Identify Activators of Luciferase Translation or Activity in H4-C Neuroglioblastoma Cells. [Related pubchem assays: 1829 (Project Summary), 1814 (Primary HTS)]; type: functional
# [4] = Luminescence Cell-Based Dose Confirmation to Identify Activators of 5'UTR Stem-Loop Driven Alpha-Synuclein mRNA Translation in H4 Neuroglioblastoma Cells. [Related pubchem assays: 1829 (Project Summary), 1814 (Primary HTS)]; type: functional
# Estrogen receptor beta [5] = target: T1, Estrogen receptor beta (Homo sapiens, UniProt Q92731);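 also: recombinant ER-beta bound to coactivator SRC1 peptide in presence of estradiol agonist; inhibitors block coactivator peptide binding and lower the FRET signal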
# T1 sequence (Q92731 whole entry): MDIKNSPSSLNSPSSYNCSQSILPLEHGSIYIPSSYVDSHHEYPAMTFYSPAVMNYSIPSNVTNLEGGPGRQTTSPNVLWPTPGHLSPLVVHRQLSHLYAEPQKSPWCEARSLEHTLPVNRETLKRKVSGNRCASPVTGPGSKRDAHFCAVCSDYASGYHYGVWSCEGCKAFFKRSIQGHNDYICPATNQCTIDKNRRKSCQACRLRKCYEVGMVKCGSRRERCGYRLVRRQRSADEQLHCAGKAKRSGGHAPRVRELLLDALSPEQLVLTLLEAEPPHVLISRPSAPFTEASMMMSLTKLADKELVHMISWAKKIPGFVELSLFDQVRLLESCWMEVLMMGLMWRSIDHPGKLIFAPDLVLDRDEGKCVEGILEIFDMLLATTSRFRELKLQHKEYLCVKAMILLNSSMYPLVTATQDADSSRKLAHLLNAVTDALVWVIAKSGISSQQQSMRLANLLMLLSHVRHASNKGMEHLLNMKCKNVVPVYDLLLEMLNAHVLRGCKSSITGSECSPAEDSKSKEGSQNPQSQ
# Estrogen receptor beta [6] = target: T1, Estrogen receptor beta; experiment: ERβ–SRC-3 coactivator interaction inhibitors, confirmation, orthogonal assay, biochemical, ELISA, streptavidin-HRP readout (AID 1060)
# [7] = target: T2, Polyadenylate-binding protein 1 (Homo sapiens, UniProt P11940); experiment: PABP1 MLLE–PAM2 interaction inhibitors, dose response, miRNA deadenylation inhibitor project, biochemical, fluorescence polarization, Cy5-PAM2 peptide, secondary (AID 602260); type: functional; details: read-out: IC50_Mean
# T2 sequence (P11940 whole entry): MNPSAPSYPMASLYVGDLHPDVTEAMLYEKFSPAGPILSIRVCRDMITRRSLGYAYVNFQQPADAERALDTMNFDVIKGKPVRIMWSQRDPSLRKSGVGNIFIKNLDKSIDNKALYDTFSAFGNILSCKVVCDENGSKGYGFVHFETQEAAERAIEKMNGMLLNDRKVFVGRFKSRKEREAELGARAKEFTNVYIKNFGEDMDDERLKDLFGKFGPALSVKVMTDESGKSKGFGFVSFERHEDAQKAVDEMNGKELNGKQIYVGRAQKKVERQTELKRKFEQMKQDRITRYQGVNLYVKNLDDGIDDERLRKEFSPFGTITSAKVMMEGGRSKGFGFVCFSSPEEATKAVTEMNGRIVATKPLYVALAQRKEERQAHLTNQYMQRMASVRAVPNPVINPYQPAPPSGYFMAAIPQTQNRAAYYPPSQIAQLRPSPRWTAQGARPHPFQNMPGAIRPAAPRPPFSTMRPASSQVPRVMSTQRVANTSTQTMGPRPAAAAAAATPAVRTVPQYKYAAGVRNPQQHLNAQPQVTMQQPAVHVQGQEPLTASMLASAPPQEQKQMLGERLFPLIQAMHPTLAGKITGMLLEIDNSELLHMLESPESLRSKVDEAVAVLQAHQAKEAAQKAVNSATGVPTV
# [8] = target: T2, Polyadenylate-binding protein 1; experiment: PABP1 MLLE–PAM2 binding inhibitor potency, dose response, biochemical, fluorescence polarization, FITC-PAM2 peptide (AID 602259); type: functional; details: read-out: IC50_Mean
# [9] = Concentration-dependent survival of SW480 colon cancer line, luminescence detection with CellTiter-Glo, half-maximal inhibitory concentration (AID 1117338); type: functional
# [10] = cytotoxicity toward HCT116 cells – cell-based, CellTiter-Glo luminescence, IC50, dose response (AID 1117332); type: functional; details: HCT-116
# [11] = SNU-C1 cell viability reduction, dose response, CellTiter-Glo luminescence (AID 1117323); type: functional, cell-based
# [12] = cytotoxicity toward Colo320 cells – cell-based, CellTiter-Glo luminescence, IC50, dose response (AID 1117334); type: functional; details: COLO 320
# [13] = cytotoxicity toward HT-29 cells – cell-based, CellTiter-Glo luminescence, IC50, dose response (AID 1117330); type: functional
# [14] = CellTiter-Glo luminescent dose response of DLD-1 viability loss (AID 1117352); type: functional
# [15] = HCT116 cell viability decrease, GSK3B pretreatment – CellTiter-Glo, IC50, dose response (AID 1117339); type: functional; details: HCT-116
# [16] = Luminescence Cell-Based Dose Retest to Confirm Inhibitors of Cancer Stem Cells. [Related pubchem assays (depositor defined):AID2717, AID2721]; type: functional; details: Homo sapiens
# [17] = P. falciparum late gametocyte killing, dose response, luminescence (AID 1117278); type: functional, cell-based;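 also: gametocytes exposed to compound for 24 hours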
# [18] = Jurkat T cell cytotoxicity, dose response, cytotoxicity control for P. falciparum gametocyte viability project, luminescence (AID 1117277); type: functional, cell-based;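 also: potency reflects loss of cellular ATP meaning fewer viable cells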
# [19] = target: Heat shock protein HSP 90-alpha (Homo sapiens, UniProt P07900); experiment: Luminescence-based dose response biochemical high throughput screening assay for inhibitors of the Heat Shock Protein 90 (HSP90). [Related pubchem assays: 1831 (Summary AID.), 1846 (Confirmation screen.), 1789 (Primary screen.)]
# Protein skinhead-1 = target: T3, Protein skinhead-1 (Caenorhabditis elegans, UniProt P34707); type: functional
# T3 sequence (P34707 whole entry): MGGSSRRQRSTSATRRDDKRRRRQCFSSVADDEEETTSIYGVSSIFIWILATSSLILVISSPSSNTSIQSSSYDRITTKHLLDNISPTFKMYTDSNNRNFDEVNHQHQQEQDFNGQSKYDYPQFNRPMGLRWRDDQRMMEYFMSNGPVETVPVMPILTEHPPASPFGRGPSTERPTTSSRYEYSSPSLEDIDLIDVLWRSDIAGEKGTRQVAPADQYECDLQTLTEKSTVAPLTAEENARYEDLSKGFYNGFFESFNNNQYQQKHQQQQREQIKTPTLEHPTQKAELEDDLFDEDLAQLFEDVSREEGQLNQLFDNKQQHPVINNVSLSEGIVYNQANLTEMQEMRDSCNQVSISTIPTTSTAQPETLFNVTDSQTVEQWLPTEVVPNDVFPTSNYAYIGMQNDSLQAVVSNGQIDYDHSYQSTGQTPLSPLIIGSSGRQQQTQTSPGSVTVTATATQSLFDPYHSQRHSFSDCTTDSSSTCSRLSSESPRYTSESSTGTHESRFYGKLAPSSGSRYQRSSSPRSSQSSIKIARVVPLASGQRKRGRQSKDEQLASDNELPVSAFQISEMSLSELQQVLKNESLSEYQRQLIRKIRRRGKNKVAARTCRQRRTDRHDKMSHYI
# Transthyretin = Transthyretin (Homo sapiens, UniProt P02766); experiment: Luminescence-based cell-based high throughput dose response assay to identify activators of Transthyretin (TTR) transcription.; type: functional
# Estrogen receptor = target: T4, Estrogen receptor (Homo sapiens, UniProt P03372); experiment: potentiators of ERα–SRC-1 coactivator binding, dose response, biochemical, TR-FRET, ERα LBD (AID 737)
# T4 sequence (P03372 whole entry): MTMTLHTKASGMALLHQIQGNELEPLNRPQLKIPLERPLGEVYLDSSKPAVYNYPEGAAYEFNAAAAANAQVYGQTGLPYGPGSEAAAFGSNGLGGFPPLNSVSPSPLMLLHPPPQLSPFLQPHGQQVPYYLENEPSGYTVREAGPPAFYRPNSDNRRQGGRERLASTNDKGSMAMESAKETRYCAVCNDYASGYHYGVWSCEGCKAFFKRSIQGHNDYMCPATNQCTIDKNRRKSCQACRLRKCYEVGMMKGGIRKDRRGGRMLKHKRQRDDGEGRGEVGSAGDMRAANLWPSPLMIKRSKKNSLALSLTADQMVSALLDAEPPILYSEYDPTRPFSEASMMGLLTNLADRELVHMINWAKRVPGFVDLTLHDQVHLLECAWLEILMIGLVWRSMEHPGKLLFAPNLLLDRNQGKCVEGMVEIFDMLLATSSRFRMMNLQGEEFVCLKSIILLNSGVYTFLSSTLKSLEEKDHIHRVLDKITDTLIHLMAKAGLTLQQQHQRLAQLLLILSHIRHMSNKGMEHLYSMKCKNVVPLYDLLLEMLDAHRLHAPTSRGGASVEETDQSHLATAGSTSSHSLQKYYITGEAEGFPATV
# Cytochrome P450 2C19 = Cytochrome P450 2C19 (Homo sapiens, UniProt P33261); experiment: Cytochrome panel assay with activity outcomes. Panel member name: p450-cyp2c19 Compounds with AC50 equal or less than 10 uM are considered active; type: functional; details: read-out: AC50
# Sequence of Cytochrome P450 2C19 (P33261 whole entry): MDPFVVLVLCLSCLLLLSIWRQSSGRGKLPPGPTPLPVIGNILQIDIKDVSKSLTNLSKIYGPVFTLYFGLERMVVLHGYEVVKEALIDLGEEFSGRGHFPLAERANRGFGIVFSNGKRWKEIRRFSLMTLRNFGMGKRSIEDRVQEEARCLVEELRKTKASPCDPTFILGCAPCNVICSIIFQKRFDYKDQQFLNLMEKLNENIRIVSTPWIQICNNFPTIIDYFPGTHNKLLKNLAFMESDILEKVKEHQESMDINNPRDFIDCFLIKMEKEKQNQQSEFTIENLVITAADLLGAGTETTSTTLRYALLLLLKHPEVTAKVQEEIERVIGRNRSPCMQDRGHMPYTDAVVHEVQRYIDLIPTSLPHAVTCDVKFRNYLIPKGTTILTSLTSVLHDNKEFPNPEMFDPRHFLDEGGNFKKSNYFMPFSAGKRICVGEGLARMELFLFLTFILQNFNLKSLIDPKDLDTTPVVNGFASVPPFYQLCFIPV
# HT-1080 = experiment: cytotoxicity in HT1080 fibrosarcoma cells, cell-based, fluorescence readout (AID 620); type: functional; details: Homo sapiens
# [20] = target: ADP-ribosylation factor GTPase-activating protein 1 (Rattus norvegicus, UniProt Q62848); experiment: Fluorescence polarization-based biochemical high throughput dose response screening assay to identify inhibitors of ADP-ribosylation factor GTPase activating protein 1 (ARFGAP1).; type: functional
# Sequence of ADP-ribosylation factor GTPase-activating protein 1 (Q62848 whole entry, the tested form may be a part): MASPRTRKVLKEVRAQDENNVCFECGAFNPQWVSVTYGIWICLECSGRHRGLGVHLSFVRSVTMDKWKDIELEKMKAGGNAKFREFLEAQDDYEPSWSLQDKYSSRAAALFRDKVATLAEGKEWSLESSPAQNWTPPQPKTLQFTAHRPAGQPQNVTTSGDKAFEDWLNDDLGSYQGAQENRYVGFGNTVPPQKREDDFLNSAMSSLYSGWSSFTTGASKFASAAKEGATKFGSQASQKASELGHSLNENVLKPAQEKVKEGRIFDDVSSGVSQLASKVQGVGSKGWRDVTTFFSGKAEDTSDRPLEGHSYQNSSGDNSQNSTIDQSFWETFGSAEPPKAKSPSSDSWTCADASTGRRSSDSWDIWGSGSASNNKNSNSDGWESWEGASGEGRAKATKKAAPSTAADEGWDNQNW
# [21] = target: Arf-GAP with SH3 domain, ANK repeat and PH domain-containing protein 1 (Homo sapiens, UniProt Q9ULH1); type: functional;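 also: biochemical fluorescence polarization dose–response screen measuring inhibition of ASAP1; ASAP1 GAP domain stimulating GTP hydrolysis by truncated human ARF1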
# Sequence of Arf-GAP with SH3 domain, ANK repeat and PH domain-containing protein 1 (Q9ULH1 whole entry, the tested form may be a part): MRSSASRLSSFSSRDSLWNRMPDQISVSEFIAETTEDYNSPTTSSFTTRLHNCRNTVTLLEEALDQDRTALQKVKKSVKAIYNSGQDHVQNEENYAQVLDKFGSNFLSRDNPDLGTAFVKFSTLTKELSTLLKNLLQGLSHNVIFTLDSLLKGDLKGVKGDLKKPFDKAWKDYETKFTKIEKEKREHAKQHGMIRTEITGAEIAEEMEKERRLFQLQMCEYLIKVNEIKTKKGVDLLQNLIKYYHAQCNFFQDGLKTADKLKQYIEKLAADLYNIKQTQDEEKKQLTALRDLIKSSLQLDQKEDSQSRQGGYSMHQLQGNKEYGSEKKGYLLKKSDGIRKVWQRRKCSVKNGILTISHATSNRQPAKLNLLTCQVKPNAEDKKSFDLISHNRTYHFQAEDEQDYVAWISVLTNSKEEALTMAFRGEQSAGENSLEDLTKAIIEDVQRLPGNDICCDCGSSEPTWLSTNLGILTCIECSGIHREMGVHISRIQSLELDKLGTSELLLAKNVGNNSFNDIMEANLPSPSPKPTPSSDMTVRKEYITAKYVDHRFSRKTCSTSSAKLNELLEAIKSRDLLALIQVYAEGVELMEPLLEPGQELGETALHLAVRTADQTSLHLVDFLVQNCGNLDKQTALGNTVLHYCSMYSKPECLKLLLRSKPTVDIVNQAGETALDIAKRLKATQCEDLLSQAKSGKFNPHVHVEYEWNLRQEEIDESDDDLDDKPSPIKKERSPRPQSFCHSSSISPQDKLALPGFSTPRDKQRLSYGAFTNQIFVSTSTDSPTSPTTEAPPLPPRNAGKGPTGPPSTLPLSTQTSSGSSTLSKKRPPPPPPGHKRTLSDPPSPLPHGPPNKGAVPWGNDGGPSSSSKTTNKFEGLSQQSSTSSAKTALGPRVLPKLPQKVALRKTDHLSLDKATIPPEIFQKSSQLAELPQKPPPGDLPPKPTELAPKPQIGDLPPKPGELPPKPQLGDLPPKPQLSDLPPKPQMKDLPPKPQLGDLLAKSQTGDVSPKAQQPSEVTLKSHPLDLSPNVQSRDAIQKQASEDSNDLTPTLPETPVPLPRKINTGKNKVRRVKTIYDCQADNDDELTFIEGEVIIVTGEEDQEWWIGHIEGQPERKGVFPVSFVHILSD
structure (smiles),measurement,setting,value
CC(C)c1ccc(C(=O)NNC(=O)C2C3CCC(C3)C2C(=O)O)cc1 (configuration not stated),EC50,[1],0.281 µM (active)
same,EC50,[2],< 0.1 µM (inconclusive)
same,EC50,[3],0.301 µM (active)
same,EC50,[4],0.232 µM (active)
CCOC(=O)c1c(C)[nH]c(C)c1C(=O)COC(=O)CCOc1ccccc1OC,IC50,Estrogen receptor beta [5],35.3 µM (not active)
same,IC50,Estrogen receptor beta [6],> 109 µM (not active)
COP(=S)(OC)Oc1ccc(Sc2ccc(OP(=S)(OC)OC)cc2)cc1 [TEMEFOS],IC50,[7],> 66 µM (inactive)
same,IC50,[8],> 66 µM (inactive)
same,IC50,[9],0.0118 µM (active)
same,IC50,[10],> 20 µM (inactive)
same,IC50,[11],3.03 µM (active)
same,IC50,[12],> 20 µM (inactive)
same,IC50,[13],> 20 µM (inactive)
same,IC50,[14],> 20 µM (inactive)
same,IC50,[15],> 20 µM (inactive)
Cc1ccc(C(=O)NC2c3ccccc3-c3ccccc32)cc1,AC50,[16],0.448 µM (active)
same,IC50,[17],> 109 µM (inactive)
same,IC50,[18],> 1.03 µM (active)
O=C(O)c1cc(N/N=C/c2c[nH]c3ccccc23)ccc1Cl,IC50,[19],> 2 µM (active)
O=[N+]([O-])c1cccc(-c2noc(-c3ccco3)n2)c1,IC50,Protein skinhead-1,> 100 µM (inactive)
same,EC50,Transthyretin,> 167 µM (inactive)
CCOc1ccc(CC2SC(Nc3ccccn3)=NC2=O)cc1 (configuration not stated),EC50,Estrogen receptor,25.1 µM (active)
Nc1cc(-c2nnn[nH]2)ccc1F,IC50,Estrogen receptor beta [6],0.859 µM (not active)
same,AC50,Cytochrome P450 2C19,28.2 µM (inconclusive)
Cc1cc(C(=O)COC(=O)c2[nH]nc3ccccc23)c(C)n1C,EC50,HT-1080,> 50 µM (not active)
same,IC50,[20],32.4 µM (inactive)
same,IC50,[21],37.6 µM (inactive)
